For series [1], the system named is EV71 BrCr strain (VR-1775, genotype A). The experiment in a line: CPE inhibition assay for anti-EV71, BrCr strain. It counts as cell-based, enterovirus 71 (EV71). The note with it: Enterovirus A, read-out: BrCr Strain IC50. As for the experimental part:
(§1) Thus, all newly synthesized BBR analogues were screened for their anti-EV71 potencies in African green monkey kidney (Vero) cells taking BBR as the positive control. EV71 strains used in the present study include different genotype strains, such as H strain (VR-1432, genotype C2), BrCr strain (VR-1775, genotype A), and JS-52 and SHZH98 (genotype C4). The potency against EV71 strains above mentioned of each tested compound was evaluated by the combination of its IC50 and selectivity index (SI) value as the important therapeutic indication.
(§2) Vero cells were purchased from the American Type Culture Collection (ATCC, […], MD, USA), and were cultured in Minimum Essential Medium (MEM) supplemented with 10% fetal bovine serum (FBS) (GIBCO, Grand Island, NY, USA) and antibiotics (100 U/mL penicillin and […] streptomycin) at 37 °C in a 5% CO2 incubator. EV71 strain SHZH98 isolated from the throat swab sample of an HFMD case occurring in 1998 in China was kindly provided by Dr. Qi Jin (Institute of Pathogen Biology, Chinese Academy of Medical Science and Peking Union Medical School, Beijing, China), and JS-52 strain was a kind gift from Dr. Xiangzhong Ye (Beijing Wantai Biological Pharmacy Enterprise Co., Ltd., Beijing, China). The EV71 BrCr and H strains were purchased from the ATCC. All of EV71 strains were passaged in Vero cells.
(§3) The anti-EV71 activities of all tested compounds were detected by the virus-induced CPE assay. Briefly, cells (3 × 10^4 cells/well) were plated into 96-well culture plates and incubated for 16 h. Then, remove the medium and infected cells with EV71 of 100 × TCID50 (50% tissue culture infective doses) in serum-free medium for 1 h at 37 °C. After that, the unbound viruses were removed and various concentrations of tested compounds were supplemented for incubation of another 72 h. […] TC50 defined as the concentration that leads to the 50% of CPE which determined by the same method in 72 h. In addition, the cells were stained the cells were colored with 0.5% crystal violet in 20% ethanol for 15 min at room temperature and the cells were imaged after rinsed with PBS.

Series [2] has as its system EV71 SHZH98 strain (genotype C4). The experiment in a line: CPE inhibition assay for anti-EV71, SHZH98 strain. It counts as cell-based, enterovirus 71 (EV71). The settings on record: Enterovirus A, read-out: SHZH98 Strain IC50. As for the experimental part:
as §1, §2, §3

For series [3], the system named is EV71 H strain (VR-1432, genotype C2). Description: CPE inhibition assay for anti-EV71, H strain. It counts as cell-based, enterovirus 71 (EV71). The note with it: for IC50: Enterovirus A, read-out: H Strain IC50; for anti-EV71 activity against H strain, in words: compared with BBR. As for the experimental part:
as §1, §2, §3

For series [4], the system named is EV71 JS-52 strain (genotype C4). The experiment in a line: CPE inhibition assay for anti-EV71, JS-52 strain. The note with it: Enterovirus A, read-out: JS-52 Strain IC50. It counts as cell-based, enterovirus 71 (EV71). How it is done:
as §1, §2, §3

Series [5] deals with Vero cells. The experiment in a line: Cytotoxicity assay (CCK) in Vero cells. It is filed as cell-based, African green monkey. The settings on record: for TC50 (median toxic concentration): African green monkey, 48 h. As for the experimental part:
as §2
Cytotoxicity of all target compounds in Vero cells was analyzed by CCK (TransGen Biotech, Beijing, China) assay. In brief, cells in exponential phase (3 × 10^4 cells/well) were seeded into 96-well culture plates and incubated overnight. Then, the medium was removed and different concentrations of all target compounds were applied in duple. After 48 h incubation, the cytotoxicity of all target compounds was determined by CCK assay. The signals were read at 450 nm on Enspire (Perkin Elmer, Waltham, MA, USA). The TC50 was defined as the concentration that inhibits 50% cellular growth in comparison with the controls. It is calculated by the Reed and Muench method.

Setting [6] is: EV71, Vero cells, CPE, calculated on the organic part, n = 3.

The text below walks through data of paper PMC6222558, “Synthesis and Evolution of Berberine Derivatives as a New Class of Antiviral Agents against Enterovirus 71 through the MEK/ERK Pathway and Autophagy” (Molecules : A Journal of Synthetic Chemistry and Natural …, 2018).

For orientation: IC50 means the concentration at which inhibition is half-maximal.

Read-outs that look alike come from different tables or passages of the source.

With `CCOC(=O)COc1c(OC)ccc2cc3[n+](cc12)CCc1cc2c(cc1-3)OCO2` [2a, 2,3-Methylenedioxy-9-ethyloxyformylmethylenoxy-10-methoxy protoberberine chloride], the IC50 in series [1] (setting [6]) is 32.3 µM; in series [2] (setting [6]), 60.4 µM; in series [3] (setting [6]) it was 48.3 µM; in series [4] (setting [6]), 45.5 µM. In addition, the “TC50 (median toxic concentration)” value in series [5] was found to be 223 µM.

With `COc1cc2c(cc1OCC(=O)c1ccc(C(F)(F)F)cc1)CC[n+]1cc3c(OC)c(OC)ccc3cc1-2` [5f, 2,9,10-Trimethoxy-3-p-trifloromethylphenylformylmethylenoxy protober berine chloride], the IC50 in series [1] (setting [6]) is 25.4 µM; in series [2] (setting [6]), 68.4 µM; in series [3] (setting [6]), 40.4 µM; in series [4] (setting [6]), 27 µM. Moreover, the “anti-EV71 activity against H strain, in words” value (“anti-EV71 activity” below) in series [3] (Vero cells) was “partially or completely lost”. Moreover, the “TC50 (median toxic concentration)” value in series [5] was found to be 143 µM.

Regarding `COc1ccc2cc3[n+](cc2c1OCC(=O)OCC(C)C)CCc1cc2c(cc1-3)OCO2` [2b, 2,3-Methylenedioxy-9-isobutyloxyformylmethylenoxy-10-methoxy protoberberine chloride], the IC50 in series [1] (setting [6]) was 2.04 µM; in series [2] (setting [6]), 5.46 µM; in series [3] (setting [6]) it was greater than 5.34 µM; in series [4] (setting [6]) it was 5.73 µM. For the same compound, the “TC50 (median toxic concentration)” value in series [5] was determined as 22.3 µM.

For `COc1ccc2cc3[n+](cc2c1OCC(=O)c1ccc(C(F)(F)F)cc1)CCc1cc2c(cc1-3)OCO2` [2g, 2,3-Methylenedioxy-9-p-trifloromethylphenylformylmethylenoxy-10-methoxy protoberberine chloride], the concentration for half-maximal inhibition (IC50) in series [1] (setting [6]) was 10.6 µM; in series [2] (setting [6]), 12.3 µM; in series [3] (setting [6]), 15.8 µM; in series [4] (setting [6]), 11.9 µM. The “TC50 (median toxic concentration)” value in series [5] worked out at 54.9 µM.

Turning to `CCOC(=O)COc1c(OC)ccc2cc3[n+](cc12)CCc1cc(OC)c(OC)cc1-3` [4a, 2,3,10-Trimethoxy-9-ethyloxyformylmethylenoxy protoberberine chloride], the IC50 in series [1] (setting [6]) is greater than 144 µM; in series [2] (setting [6]) it was greater than 144 µM; in series [3] (setting [6]), 144 µM; in series [4] (setting [6]), greater than 144 µM. Moreover, the “TC50 (median toxic concentration)” value in series [5] is 434 µM.

In the case of `COc1cc2c(cc1O)CC[n+]1cc3c(OC)c(OC)ccc3cc1-2` [JTH, jatrorrhizine, reference compound], the IC50 in series [1] (EV71, Vero) is greater than 147 µM; in series [2] (EV71, Vero) it was 147 µM; in series [3] (EV71, Vero), greater than 147 µM; in series [4] (EV71, Vero), 147 µM. For the same compound, the “anti-EV71 activity” value in series [3] (Vero cells) is “decreased activity”. In series [5], the “TC50 (median toxic concentration)” value was 255 µM.

`COc1cccc(C(=O)COc2cc3c(cc2OC)-c2cc4ccc(OC)c(OC)c4c[n+]2CC3)c1` [5e, 2,9,10-Trimethoxy-3-m-methoxyphenylformylmethylenoxy protoberberine chloride]: the IC50 was 9.2 µM in series [1] (setting [6]), 9.13 µM in series [2] (setting [6]), 10.4 µM in series [3] (setting [6]) and 8.69 µM in series [4] (setting [6]). Also, the “anti-EV71 activity” value in series [3] (Vero cells) is given as “ideal activities compared with BBR”. Moreover, the “cytotoxicity, in words” value in series [5] is listed as “high cytotoxicity”. The “TC50 (median toxic concentration)” value in series [5] worked out at 27.6 µM.

With `COc1ccc2cc3[n+](cc2c1OC(=O)OCc1ccccc1)CCc1cc2c(cc1-3)OCO2` [2h, 2,3-Methylenedioxy-9-benzyloxyformyloxy-10-methoxy protoberberine chloride], the IC50 in series [1] (setting [6]) was 47.9 µM; in series [2] (setting [6]), greater than 47.9 µM; in series [3] (setting [6]) it was greater than 47.9 µM; in series [4] (setting [6]), greater than 47.9 µM. Besides, the “anti-EV71 activity” value in series [3] (Vero cells) was “obvious decreased activity”. The “TC50 (median toxic concentration)” value in series [5] turned out to be 124 µM.

`COc1cc2c(cc1OC)-c1cc3ccc(OC)c(OC(=O)OCc4ccccc4)c3c[n+]1CC2` [4g, 2,3,10-Trimethoxy-9-benzyloxyformyloxy protoberberine chloride]: the IC50 in series [1] (setting [6]) is greater than 143 µM; in series [2] (setting [6]), greater than 143 µM; in series [3] (setting [6]) it was greater than 143 µM; in series [4] (setting [6]), 129 µM. For the same compound, the “TC50 (median toxic concentration)” value in series [5] turned out to be 351 µM.

As to `CCOC(=O)Oc1c(OC)ccc2cc3[n+](cc12)CCc1cc2c(cc1-3)OCO2` [2i, 2,3-Methylenedioxy-9-ethyloxyformyloxy-10-methoxy protoberberine chloride], the IC50 in series [1] (setting [6]) is 33.6 µM; in series [2] (setting [6]), 45.7 µM; in series [3] (setting [6]), 31.1 µM; in series [4] (setting [6]), 43.6 µM. Moreover, in series [3] (Vero cells), the “anti-EV71 activity” value is listed as “obvious decreased activity”. The “TC50 (median toxic concentration)” value in series [5] was 167 µM.

With `COc1cc2c(cc1OC)-c1cc3ccc(OC)c(OCC(=O)c4ccc(C(F)(F)F)cc4)c3c[n+]1CC2` [4f, 2,3,10-Trimethoxy-9-p-trifloromethylphenylformylmethylenoxy protoberberine chloride], the IC50 in series [1] (setting [6]) is 66 µM; in series [2] (setting [6]), 82.2 µM; in series [3] (setting [6]), 82.2 µM; in series [4] (setting [6]), 54.2 µM. Further, the “TC50 (median toxic concentration)” value in series [5] worked out at 306 µM.

Take `COc1ccc2cc3[n+](cc2c1OCC(=O)C(C)(C)C)CCc1cc2c(cc1-3)OCO2` [2c, 2,3-Methylenedioxy-9-pivalylmethylenoxy-10-methoxy protoberberine chloride]: the IC50 in series [1] (setting [6]) was 4.26 µM; in series [2] (setting [6]), 8.59 µM; in series [3] (setting [6]), 13.8 µM; in series [4] (setting [6]) it was 7.26 µM. For the same compound, the “TC50 (median toxic concentration)” value in series [5] turned out to be 27.9 µM.

For `COc1cc2c(cc1OC)-c1cc3ccc(OC)c(O)c3c[n+]1CC2` [compound 3], the IC50 in series [1] (setting [6]) was 135 µM; in series [2] (setting [6]), 132 µM; in series [3] (setting [6]), 121 µM; in series [4] (setting [6]) it was 102 µM. In series [3] (Vero cells), the “anti-EV71 activity” value is reported as “decreased activity”. Besides, in series [5], the “TC50 (median toxic concentration)” value was 254 µM.

`COc1cccc(C(=O)COc2c(OC)ccc3cc4[n+](cc23)CCc2cc3c(cc2-4)OCO3)c1` [2f, 2,3-Methylenedioxy-9-m-methoxyphenylformylmethylenoxy-10-methoxy protoberberine chloride]: the IC50 is 2.21 µM in series [1] (setting [6]), 1.85 µM in series [2] (setting [6]), greater than 5.33 µM in series [3] (setting [6]) and 1.61 µM in series [4] (setting [6]). The “TC50 (median toxic concentration)” value in series [5] was found to be 9.22 µM.

Consider `COc1cc2c(cc1OC)-c1cc3ccc(OC)c(OCC(=O)c4ccc(C)cc4)c3c[n+]1CC2` [4d, 2,3,10-Trimethoxy-9-p-tolylformylmethylenoxy protoberberine chloride], for which the IC50 in series [1] (setting [6]) is 44.2 µM; in series [2] (setting [6]), greater than 47.8 µM; in series [3] (setting [6]) it was greater than 15.9 µM; in series [4] (setting [6]), 44.2 µM. In addition, the “TC50 (median toxic concentration)” value in series [5] is 50.0 µM.

In the case of `CCOC(=O)COc1cc2c(cc1OC)-c1cc3ccc(OC)c(OC)c3c[n+]1CC2` [5a, 2,9,10-Trimethoxy-3-ethyloxyformylmethylenoxy protoberberine chloride], the half-inhibitory concentration (IC50) is 125 µM in series [1] (setting [6]), 144 µM in series [2] (setting [6]), 130 µM in series [3] (setting [6]) and 109 µM in series [4] (setting [6]). The “TC50 (median toxic concentration)” value in series [5] is 250 µM.

On to `COc1cc2c(cc1OCC(=O)OCc1ccccc1)CC[n+]1cc3c(OC)c(OC)ccc3cc1-2` [5c, 2,9,10-Trimethoxy-3-benzyloxyformylmethylenoxy protoberberine chloride], for which the IC50 is 44.1 µM in series [1] (setting [6]), 123 µM in series [2] (setting [6]), 93.7 µM in series [3] (setting [6]) and 101 µM in series [4] (setting [6]). For the same compound, the “TC50 (median toxic concentration)” value in series [5] was 248 µM.
